# Tests used:
# HSA [1] = biological target: T1, HSA (Homo sapiens, UniProt P02768); experiment: Fluorescence turn-on assay of HSA in PBS buffer; assay type: binding
# T1 construct: purchased Sigma-Aldrich
# Description: FIG. 2: (A) Fluorescent (FL) spectra of compound 1, SATPE in phosphate buffered saline (PBS) buffer containing different concentrations of HSA; (B) Change in the FL intensity at 475 nm with HSA concentration; Io=FL intensity in the absence of HSA. Inset: linear region of the binding isotherm of SATPE to HSA. [SATPE]=5 μM; λex=350 nm.
# (§1) In another embodiment, Compound 1 is AIE-active as it emits faintly in PBS buffer but gives strong light upon aggregate formation. Its solution in PBS buffer is weakly luminescent at 390 nm in the absence of HSA (FIG. 2). […] The higher the HSA content, the stronger is the light emission. The detection limit can be squeezed to as low as 1 nM. In order to examine the feasibility of protein assay in body fluids, artificial urine is utilized as medium in the protein assay.
# HSA [2] = biological target: T1, HSA; experiment: Selectivity of fluorescence response to HSA against other proteins and DNAs; assay type: binding; conditions: FIG. 3B, [SATPE]=5 μM, [protein]=100 μg/mL
# Description: FIG. 3: (A) Binding isotherm of HSA to SATPE in artificial urine and PBS buffer; (B) Dependence of the FL intensity of SATPE at 475 nm on different proteins in artificial urine and PBS buffer. [SATPE]=5 μM; [protein]=100 μg/mL; λex=350 nm.
# as §1
# T1 sequence (P02768 25-609): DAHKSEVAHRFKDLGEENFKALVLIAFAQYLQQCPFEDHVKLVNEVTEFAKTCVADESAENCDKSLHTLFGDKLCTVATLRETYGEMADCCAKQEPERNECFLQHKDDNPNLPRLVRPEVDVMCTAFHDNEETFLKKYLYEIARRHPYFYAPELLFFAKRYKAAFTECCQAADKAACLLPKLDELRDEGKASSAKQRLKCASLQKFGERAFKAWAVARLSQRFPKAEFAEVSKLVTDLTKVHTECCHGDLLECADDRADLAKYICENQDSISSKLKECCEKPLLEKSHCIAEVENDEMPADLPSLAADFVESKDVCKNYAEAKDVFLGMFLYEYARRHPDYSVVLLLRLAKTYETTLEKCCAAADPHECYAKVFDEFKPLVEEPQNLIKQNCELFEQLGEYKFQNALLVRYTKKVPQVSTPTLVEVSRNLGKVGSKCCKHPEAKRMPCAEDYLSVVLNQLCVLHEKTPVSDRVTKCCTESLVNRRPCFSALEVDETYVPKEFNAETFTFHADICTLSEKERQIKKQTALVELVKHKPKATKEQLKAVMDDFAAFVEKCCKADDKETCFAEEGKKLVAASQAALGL
structure (smiles),measurement,setting,value
O=S(=O)([O-])CCCOc1ccc(C(=C(c2ccccc2)c2ccc(OCCCS(=O)(=O)[O-])cc2)c2ccccc2)cc1.[Na+].[Na+] [Compound 1],detection limit for HSA,HSA [1]; emission at 475 nm,1 nM
same,light emission upon addition of HSA,HSA [1]; weakly luminescent at 390 nm in the absence of HSA,emit intensely at 475 nm
same,response to other human proteins and DNAs,HSA [2],no significant response
same,selectivity to HSA,HSA [2]; artificial urine and PBS buffer,excellent selectivity to HSA
